Measurements taken from ChEMBL document CHEMBL1141755, “Flavonoids from the stem of Eriophorum scheuchzeri” (J Nat Prod, 2005).
The source made the active and inactive calls. No cut-off for these calls is given here.

Assays:
Candida albicans [1] = assay: Antifungal activity against Candida albicans at 10 ug after 3 days by MTT assay; format: functional, organism-based
Cladosporium cucumerinum [2] = assay: Antifungal activity against Cladosporium cucumerinum at 1 ug after 3 days by MTT assay; format: functional, organism-based
[3] = system: Radical scavenging activity; assay: Antioxidant activity assessed as DPPH radical scavenging activity at 1 ug; format: functional
[4] = system: Radical scavenging activity; assay: Antioxidant activity assessed as DPPH radical scavenging activity at 10 ug; format: functional
Cladosporium cucumerinum [5] = assay: Antifungal activity against Cladosporium cucumerinum at 5 ug after 3 days by MTT assay; format: functional, organism-based
[6] = system: Radical scavenging activity; assay: Antioxidant activity assessed as DPPH radical scavenging activity at 5 ug; format: functional
Candida albicans [7] = assay: Antifungal activity against Candida albicans at 5 ug after 3 days by MTT assay; format: functional, organism-based
Cladosporium cucumerinum [8] = assay: Antifungal activity against Cladosporium cucumerinum at 10 ug after 3 days by MTT assay; format: functional, organism-based

With `COc1cc(O)c2c(=O)c(-c3ccc(O)c(C)c3O)coc2c1` the Activity (Candida albicans [1]) was “Active”, the Activity (Cladosporium cucumerinum [2]) was “inactive” and the Activity [3] was “Active”. For the same molecule, the Activity [4] was “Active”, the Activity (Cladosporium cucumerinum [5]) was “inactive” and the Activity [6] was “Active”. For the same molecule, the Activity (Candida albicans [7]) was “Active” and the Activity (Cladosporium cucumerinum [8]) was “Active”.
In the case of `COc1cc(O)c2c(=O)c(-c3ccc(O)cc3O)coc2c1`, the Activity (Candida albicans [1]) is reported as “inactive”, the Activity (Cladosporium cucumerinum [2]) is reported as “Active” and the Activity [3] is reported as “inactive”. The Activity [4] was “inactive”, the Activity (Cladosporium cucumerinum [5]) was “Active” and the Activity [6] was “inactive”. The Activity (Candida albicans [7]) was “inactive” and the Activity (Cladosporium cucumerinum [8]) was “Active”.
For `COc1cc(O)c2c(=O)c(-c3ccc(O)cc3OC)coc2c1`, the Activity (Candida albicans [1]) was “inactive”, the Activity (Cladosporium cucumerinum [2]) was “inactive” and the Activity [3] was “inactive”. For the same molecule, the Activity [4] was “Active”, the Activity (Cladosporium cucumerinum [5]) was “inactive” and the Activity [6] was “Active”. The Activity (Candida albicans [7]) was “inactive” and the Activity (Cladosporium cucumerinum [8]) was “inactive”.
For `COc1cc(-c2cc(=O)c3c(O)cc(O)cc3o2)cc(OC)c1O`, the Activity (Candida albicans [1]) was “inactive”, the Activity (Cladosporium cucumerinum [2]) was “inactive” and the Activity [3] was “Active”. For the same molecule, the Activity [4] was “Active”, the Activity (Cladosporium cucumerinum [5]) was “inactive” and the Activity [6] was “Active”. For the same molecule, the Activity (Candida albicans [7]) was “inactive” and the Activity (Cladosporium cucumerinum [8]) was “inactive”.
For `COc1cc(O)c2c(=O)c(-c3ccc(O)c(C)c3OC)coc2c1`, the Activity (Candida albicans [1]) was “inactive”, the Activity (Cladosporium cucumerinum [2]) was “Active” and the Activity [3] was “inactive”. For the same molecule, the Activity [4] was “inactive”, the Activity (Cladosporium cucumerinum [5]) was “Active” and the Activity [6] was “inactive”. For the same molecule, the Activity (Candida albicans [7]) was “inactive” and the Activity (Cladosporium cucumerinum [8]) was “Active”.
For `C=C(C)C(O)Cc1c(O)cc(O)c2c1OC(c1ccc(O)cc1)CC2=O` (centres undefined), the Activity (Candida albicans [1]) was “Active”, the Activity (Cladosporium cucumerinum [2]) was “inactive” and the Activity [3] was “Active”. The Activity [4] was “Active”, the Activity (Cladosporium cucumerinum [5]) was “Active” and the Activity [6] was “Active”. For the same molecule, the Activity (Candida albicans [7]) was “Active” and the Activity (Cladosporium cucumerinum [8]) was “Active”.
In the case of `CC1(C)C=Cc2c(cc3occ(-c4ccc(O)cc4O)c(=O)c3c2O)O1`, the Activity (Candida albicans [1]) is reported as “Active”, the Activity (Cladosporium cucumerinum [2]) is reported as “Active” and the Activity [3] is reported as “Active”. The Activity [4] was “Active”, the Activity (Cladosporium cucumerinum [5]) was “Active” and the Activity [6] was “Active”. For the same molecule, the Activity (Candida albicans [7]) was “Active” and the Activity (Cladosporium cucumerinum [8]) was “Active”.
With `CC1(C)C=Cc2c(cc(O)c3c(=O)c(-c4ccc(O)cc4O)coc23)O1` the Activity (Candida albicans [1]) was “Active”, the Activity (Cladosporium cucumerinum [2]) was “Active” and the Activity [3] was “Active”. For the same molecule, the Activity [4] was “Active”, the Activity (Cladosporium cucumerinum [5]) was “Active” and the Activity [6] was “Active”. For the same molecule, the Activity (Candida albicans [7]) was “Active” and the Activity (Cladosporium cucumerinum [8]) was “Active”.
